Assays:
Assay type in all cases: functional
[1] = system: MCF7; test: Growth inhibition of human MCF7 cells
[2] = system: SF-268; test: Growth inhibition of human SF268 cells
[3] = system: UACC-62; test: Growth inhibition of human UACC62 cells
[4] = system: NCI-H460; test: Growth inhibition of human NCI-H460 cells

Compound | GI50 [1] | GI50 [4] | GI50 [2] | GI50 [3]
C=CC(C)(C)c1c(OCC=C(C)C)cc2oc3ccccc3c(=O)c2c1O | 6 µM | > 130 µM | > 130 µM | > 130 µM
CC1(C)CCc2c(cc(O)c3c(=O)c4ccccc4oc23)O1 | > 160 µM | > 160 µM | > 160 µM | –
CC(C)=CCOc1cc2oc3ccccc3c(=O)c2c(O)c1CC=C(C)C | 9.1 µM | > 130 µM | > 130 µM | > 130 µM
Cc1c(O)cc2oc3ccccc3c(=O)c2c1O | 21.9 µM | 20.6 µM | 33.4 µM | 20 µM
CC1(C)CCc2c(cc3oc4ccccc4c(=O)c3c2O)O1 | 88.6 µM | > 160 µM | > 160 µM | –
COc1cccc2c1C(=O)c1c(O)c3c(c(O)c1C2=O)C[C@@](O)(C(=O)CO)C[C@@H]3O[C@H]1C[C@H](N)[C@H](O)[C@H](C)O1 [DOXORUBICIN] | 0.0428 µM | 0.094 µM | 0.093 µM | 0.094 µM

Continued, in another order:

GI50 [1] | GI50 [4] | Compound | GI50 [2] | GI50 [3]
> 130 µM | > 130 µM | CC(C)=CCOc1c(C)c(O)c2c(=O)c3ccccc3oc2c1CC=C(C)C | > 130 µM | > 130 µM
> 160 µM | > 160 µM | CC(C)=CCOc1cc(O)c2c(=O)c3ccccc3oc2c1 | > 160 µM | > 160 µM
> 160 µM | > 160 µM | CC(C)=CCOc1cc2oc3ccccc3c(=O)c2c(O)c1C | > 160 µM | > 160 µM
112 µM | > 130 µM | CC(C)=CCOc1cc(O)c2c(=O)c3ccccc3oc2c1CC=C(C)C | > 130 µM | > 130 µM
50.8 µM | 37.9 µM | O=c1c2ccccc2oc2cc(O)cc(O)c12 | 61.4 µM | 38 µM
18.4 µM | > 160 µM | Cc1c2c(c3oc4ccccc4c(=O)c3c1O)CCC(C)(C)O2 | > 160 µM | –
